{"source": "paper PMC10222203", "about": "(Pharmaceutics, 2023)", "key": {"[1]": {"settings": "rat, tissue homogenate"}, "brain slices": {"system": "brain slices", "experimental": "(§1) The brain slice assay was performed according to previously published protocols. Three animals per study group were investigated. All glassware used in the brain slice experiments was silanized using dimethyldichlorosilane in heptane to avoid non-specific binding of the cyclic peptides to glass. In short, the silanization solution was added to the glassware and left there for one hour, after which the glassware was rinsed with methanol and then placed in a heating cabinet to cure. Slicing was performed with a Leica VT1200 microtome slicer (Leica Microsystems, Wetzlar, Germany). […] At the end of the incubation, two 200 µL samples of aECF were taken and mixed with blank brain homogenate (1:4, w:v) for assessment of unbound buffer concentration, Cbuffer (nanomoles per mL). Thereafter, the brain slices were individually sampled, carefully dried on filter paper, weighed, and homogenized in aECF (1:9, w:v) to determine the total amount of drug in the slice, Aslice (nanomoles per g brain). The density of brain tissue was assumed to be 1 g/mL. The key assumption of the assay is achievement of equilibrium during 5 h incubation, with Cbuffer being equal and representing unbound brain slice interstitial concentration. Samples of aECF (200 µL) were also taken from the scintillation vial without brain slices at the start and at the end of the incubation to determine the relative recovery and thermostability of the peptides. The unbound volume of distribution in brain, Vu,brain (mL/g brain), was calculated using Equation (3). (3) Vu,brain =Aslice−Vi×Cbuffer/Cbuffer(1−Vi) where Vi is the volume of buffer film that coats the slice and equals to 0.094 mL/g brain [39].\n(§2) To study the potential mechanism of intracellular distribution of the peptides, several exploratory experiments were performed (Figure 2a). […] In addition, the role of endocytosis and pH partitioning-driven distribution was investigated. The slices were pre-incubated for 30 min with the blockers before the addition of the peptides. Dynasore was used as an inhibitor of dynamin-dependent endocytosis, which is involved in both clathrin and caveolin vesicle formation (Figure 3a). […] Due to high cytotoxicity, the concentration of […] was chosen based on previous studies.\n(§3) The unbound intracellular-to-extracellular concentration ratio, Kp,uu,cell, was calculated according to Equation (14) by combining the brain slice derived, Vu,brain, with the measurement of brain tissue binding, fu,brain, from the tissue homogenate study. This allows elucidation of whether the uptake into the brain cells is driven mainly by passive processes and intracellular binding and/or partitioning, such as lysosomal trapping, or by active uptake into the cells. (14) Kp,uu,cell=fu,brain×Vu,brain"}, "[2]": {"settings": "rat, Kp,uu,cell", "experimental": "as §1, §2, §3"}, "in vitro [3]": {"test": "in vitro", "experimental": "(§4) The in vitro BBB model, consisting of CD34^+ endothelial cells (ECs) derived from hematopoietic stem cells in co-culture with bovine brain pericytes, was established as described by Cecchelli et al.. Written and informed consent was obtained for the collection of human umbilical cord blood, in compliance with French legislation. […] All experiments were carried out in line with the authorized protocol.\n(§5) These isolated CD34+ cells were cultured in EGM-2, supplemented with 20% (v:v) FBS and 50 ng/mL vascular endothelial growth factor on 1% (w:v) gelatine-coated 24-well plates (2 × 10^5 cells/well). After 15–20 days, ECs are seen in the culture dish. For each experiment, the cells were expanded in 1% (w:v) gelatine-coated T75 flasks (BD Biosciences, Le Pont-de-Claix, France) in EGM-2. Bovine brain pericytes were isolated and characterized as described by Vandenhaute et al.. Sub-clones were cultured in Dulbecco’s Modified Eagle’s Medium supplemented with 20% (v:v) FBS, 2 mM L-glutamine, 50 µg/mL gentamycin, and 1 ng/mL basic fibroblast growth factor. At confluency, 5 × 10^4 cells were seeded in ECM-5 with 5% (v:v) FBS, 50 µg/mL gentamycin, and 0.5% endothelial cell growth factor in gelatine-coated 12-well plates (Costar, Corning Inc., New York, NY, USA). CD34^+-derived ECs were seeded at 8 × 10^4 cells per Matrigel-coated (BD Biosciences) insert (3401, Corning Inc., NY, USA) and put in co-culture with the bovine brain pericytes, with the pericytes at the bottom of the well, for 6 days to achieve brain-like endothelial cell (BLEC) characteristics (Figure 4b).\n(§6) At the beginning of the permeability experiments, inserts with BLEC monolayers were transferred to new abluminal (receiver) compartments previously filled with 1.5 mL of RH buffer, and 500 µL of the compounds dissolved in RH buffer, with the addition of the paracellular marker sodium fluorescein (NaFlu), were added to the luminal (donor) compartment. After 3 h of incubation at 37 °C, with a shaking velocity of 60 rpm, aliquots were taken from the donor and receiver compartment. The BLEC monolayers were washed twice with cold RH buffer and lysed with RLT Lysis buffer. The samples were kept at −20 °C pending analysis in low-binding tubes.\n(§7) An increase in the permeability to NaFlu in the presence of the peptide can indicate an increase in paracellular leakage and consequent loss of barrier integrity. To evaluate the ability of test compounds to cross Matrigel-coated filters without cells and to control for the adsorption to plastics and/or Matrigel, the NaFlu and peptide’s permeability over inserts without cells were also assessed. Mass balance (M.B%) was calculated from the amount of compound recovered in both compartments at the end of the experiment divided by the total amount added to the donor compartment at the start of the experiment.\n(§8) Samples from both compartments as well as the lysed endothelial cells were analysed for fluorescence using a Synergy H1 (Biotek) set to quantify NaFlu (wavelengths Excitation 490 nm and Emission 525 nm) and with UPLC-MS/MS to assess the permeability and cellular uptake of the peptides. All experiments were performed in triplicate (n = 3 independent experiments per concentration and cCPPs).\n(§9) Papp is the apparent permeability, J is the rate of appearance of the compound in the receiver compartment (amount/sec), and C0 is the concentration in the donor compartment at the start of the experiment (amount/mL)."}, "[4]": {"system": "brain-like endothelial cells (BLECs)", "test": "in vitro", "experimental": "as §4, §5, §6, §7, §8, §9"}, "[5]": {"settings": "rat, plasma, Fraction unbound in plasma, fu,plasma, undiluted rat plasma, 1 µM, equilibrium dialysis 6 h 37 °C", "protocol": "(§10) Peptide binding to plasma proteins, brain tissue homogenate, and lung tissue homogenate as well as to neuronal and astrocyte cell culture homogenates was investigated using equilibrium dialysis [47]. Undiluted plasma and brain from three peptide-naïve rats were used in the experiment. The brain homogenate was prepared by homogenizing 1 part brain with 4 parts of phosphate-buffered saline (PBS, pH 7.4). […] Semi-permeable membranes with a molecular weight cut-off of 12–14 kDa were used and placed in an HTD96b apparatus (HTDialysis, Gales Ferry, CT, USA). The undiluted plasma and respective homogenates were spiked with individual peptide to a concentration of 1 µM and were dialyzed against PBS (pH 7.4). Five technical replicates were prepared per biological replicate. The experiment was run for 6 h at 37 °C in a MaxQ4450 shaker (Thermo Fisher Scientific, NinoLab, Sweden) at 200 rpm. […] Aliquots (80 µL) were taken from the buffer and plasma/homogenate sides. To compensate for any differences in matrix during bioanalysis, the plasma and homogenate samples were mixed with equal volumes of blank buffer, and the buffer samples were mixed with an equal volume of relevant blank plasma/homogenate. Spiked plasma and respective homogenate samples were incubated to control for relative recovery and thermal stability of the peptides in respective matrices.\n(§11) The unbound fraction in undiluted plasma was calculated using Equation (5), where Cbuffer is the unbound concentration of peptide in the buffer and Cplasma is the total concentration of peptide in plasma at 6 h. The binding of peptide in various homogenates was assessed in two steps. First, the fraction of unbound peptide in the diluted homogenate, fu,h,D, was calculated using Equation (6), where Chomogenate is the total concentration of peptide in respective homogenate at 6 h. Second, the correction for the dilution was implemented as described in Equation (7), where D is the dilution factor used in the preparation [47]. D was 5 for brain and lung homogenates and on average 35.3 for the cell culture studies, as determined based on the total protein content and the total volume of lysate. (5) fu,plasma=Cbuffer/Cplasma (6) fu,h,D=Cbuffer/Chomogenate (7) fu,tissue/cell=1/D/((1/fu,h,D )−1)+1/D"}, "in vitro [6]": {"test": "in vitro", "settings": "rat, undiluted plasma, pH 7.4, Fraction unbound in plasma, fu,plasma, equilibrium dialysis 6 h 37 °C", "protocol": "as §10, §11"}, "[7]": {"settings": "cell lysates vs brain homogenate, on average"}, "[8]": {"set-up": "method as in PubChem", "settings": "estimates from PubChem; ref PubChem; cited from earlier work"}, "[9]": {"settings": "rat brain slices, 200 nM, 5 h, 37 °C"}, "[10]": {"settings": "Unbound intracellular-to-extracellular (interstitial) concentration ratio, brain slices 37 °C, fu,brain × Vu,brain"}}, "note": "Several values for one entry are separate records, joined by “and”; a condition that tells them apart may be missing. Equal values may be shown once. Read-outs that look alike come from different tables or passages of the source.", "data": [{"smiles": "CC(C)C[C@@H]1NC(=O)CNC(=O)[C@H](CC(N)=O)NC(=O)[C@H](CCCNC(=N)N)NC(=O)[C@H]([C@@H](C)O)NC(=O)[C@@H]2CSSC[C@@H]3NC(=O)[C@H]([C@@H](C)O)NC(=O)CNC(=O)CNC(=O)[C@H](C(C)C)NC(=O)[C@@H]4CSSC[C@H](NC(=O)[C@H]([C@@H](C)O)NC(=O)[C@H](CSSC[C@H](NC(=O)[C@H](C(C)C)NC(=O)[C@@H]5CCCN5C1=O)C(=O)NCC(=O)N[C@@H](CCC(=O)O)C(=O)N[C@@H]([C@@H](C)O)C(=O)N4)NC(=O)CNC(=O)[C@@H]1CCCN1C(=O)[C@H]([C@@H](C)O)NC(=O)[C@H](CC(N)=O)NC3=O)C(=O)N[C@@H](CO)C(=O)N[C@@H](Cc1c[nH]c3ccccc13)C(=O)N1CCC[C@H]1C(=O)N[C@@H](C(C)C)C(=O)N2", "note": "[Kalata B1]", "values": [{"measurement": "fraction unbound", "setting": "[1]", "result": "0.0377 ± 0.0079"}, {"measurement": "Reduction in Kp,uu,cell from 37 °C to 4 °C", "setting": "brain slices; brain slices", "result": 138, "unit": "fold"}, {"measurement": "Intra-brain distribution (Vu,brain) relative to SFTI-1", "setting": "brain slices; brain slices 37 °C", "result": "ca. 350 fold"}, {"measurement": "Unbound intracellular-to-extracellular (interstitial) concentration ratio, Kp,uu,cell", "setting": "brain slices; brain slices 37 °C, fu,brain × Vu,brain", "result": "9.73 ± 3.35"}, {"measurement": "Unbound volume of distribution in brain, Vu,brain", "setting": "brain slices; brain slices incubated at 4 °C", "result": 1.12, "unit": "mL/g brain"}, {"measurement": "Reduction in Vu,brain after pre-incubation with dynasore", "setting": "brain slices; brain slices, dynasore 50 µM, 30 min pre-incubation", "result": 23, "unit": "%"}, {"measurement": "Unbound volume of distribution in brain, Vu,brain", "setting": "brain slices; [9]", "result": "152 ± 29.9", "unit": "mL/g brain"}, {"measurement": "Unbound volume of distribution in brain, Vu,brain", "setting": "brain slices; rat brain slices, 200 nM, 5 h, 37 °C, listed as kalata B1", "result": 152, "unit": "mL/g brain"}, {"measurement": "Kp uu", "setting": "[2]; brain slices incubated at 4 °C", "result": 0.0721}, {"measurement": "Kp uu", "setting": "[2]; [10]", "result": 9.7}, {"measurement": "Papp", "setting": "in vitro [3]; Endothelial permeability, Pe (average across concentrations), BLEC monolayer, 3 h, 37 °C", "result": 3.83, "unit": "×10⁻⁶ cm/s"}, {"measurement": "Papp", "setting": "in vitro [3]; Papp, human in vitro BBB model, value used in simulation (Table S3)", "result": 3.19, "unit": "×10⁻⁶ cm/s"}, {"measurement": "Percent of the initial amount in the lysed endothelial cells", "setting": "[4]; BLECs exposed to 1000 nM peptide", "result": 0.09, "unit": "%"}, {"measurement": "Percent of the initial amount in the lysed endothelial cells", "setting": "[4]; BLECs exposed to 2000 nM peptide", "result": 0.23, "unit": "%"}, {"measurement": "Percent of the initial amount in the lysed endothelial cells", "setting": "[4]; BLECs exposed to 4000 nM peptide", "result": 3.50, "unit": "%"}, {"measurement": "Percent of the initial amount in the lysed endothelial cells", "setting": "[4]; BLECs pre-exposed to 500 nM peptide", "result": 0.19, "unit": "%"}, {"measurement": "fraction unbound", "setting": "[5]", "result": 0.3}]}, {"smiles": "CC[C@H](C)[C@@H]1NC(=O)[C@@H]2CCCN2C(=O)[C@@H]2CCCN2C(=O)[C@H]([C@@H](C)CC)NC(=O)[C@H](CO)NC(=O)[C@H](CCCCN)NC(=O)[C@H]([C@@H](C)O)NC(=O)[C@@H]2CSSC[C@H](NC1=O)C(=O)N[C@@H](Cc1ccccc1)C(=O)N1CCC[C@H]1C(=O)N[C@@H](CC(=O)O)C(=O)NCC(=O)N[C@@H](CCCNC(=N)N)C(=O)N2", "note": "[SFTI-1, sunflower trypsin inhibitor-1]", "values": [{"measurement": "fraction unbound at 6 h, 1 µM", "setting": "in vitro [6]", "result": 0.94}, {"measurement": "fu,cell fold lower than fu,brain", "setting": "[7]", "result": 3, "unit": "fold"}, {"measurement": "Predicted net charge", "setting": "[8]", "result": 0}, {"measurement": "Unbound volume of distribution in brain, Vu,brain", "setting": "brain slices; brain slices incubated at 4 °C", "result": 0.56, "unit": "mL/g brain"}, {"measurement": "Unbound volume of distribution in brain, Vu,brain", "setting": "brain slices; [9]", "result": "0.436 mL/g brain and 0.436 ± 0.064 mL/g brain"}, {"measurement": "Kp uu", "setting": "[2]; mean values across experimental conditions, brain slices, 4 °C, inhibition of endocytosis, or dissipation of the pH gradient", "result": "0.3 to 0.47"}, {"measurement": "Kp uu", "setting": "[2]; [10]", "result": "0.415 ± 0.079"}, {"measurement": "Papp A→B at 3 h", "setting": "in vitro [3]; human, pH 7.4", "result": 2.62, "unit": "×10⁻⁶ cm/s"}, {"measurement": "Papp at 3 h", "setting": "in vitro [3]; human, pH 7.4, Endothelial permeability, Pe (average across concentrations), BLEC monolayer, 3 h, 37 °C", "result": 3.8, "unit": "×10⁻⁶ cm/s"}, {"measurement": "Detection in the lysed endothelial cells", "setting": "[4]; BLECs at end of transport experiment", "result": "did not detect"}]}]}
